Experimental data from patent US6709830B2, “Methods for modulating the activation of a lymphocyte expressed G protein coupled receptor involved in cell proliferation, autoimmunity and inflammation” (The Regents of the University of California, priority 1997, dated 2004).
Entries after “also recorded” stand apart in the source; their conditions may differ. One block for each molecule: values may come before it.

Tests used:
G2A [1] = target: T1, G2A (Mus musculus, UniProt Q9Z282); assay: Radioligand binding assay with cell homogenates of HEK 293 G2A.GFP cells; settings: for competition for binding of [3H] 16:0 LPC / [3H] SPC to G2A: radioligand 1 nM, unlabelled lipids 100 nM, HEK 293 G2A.GFP
T1 construct: expressed in transfected cells; host or cells: MCF 10A (human breast epithelial cells, no endogenous G2A), plasmid pEXV3 G2A.GFP
T1 sequence (Q9Z282 1-382): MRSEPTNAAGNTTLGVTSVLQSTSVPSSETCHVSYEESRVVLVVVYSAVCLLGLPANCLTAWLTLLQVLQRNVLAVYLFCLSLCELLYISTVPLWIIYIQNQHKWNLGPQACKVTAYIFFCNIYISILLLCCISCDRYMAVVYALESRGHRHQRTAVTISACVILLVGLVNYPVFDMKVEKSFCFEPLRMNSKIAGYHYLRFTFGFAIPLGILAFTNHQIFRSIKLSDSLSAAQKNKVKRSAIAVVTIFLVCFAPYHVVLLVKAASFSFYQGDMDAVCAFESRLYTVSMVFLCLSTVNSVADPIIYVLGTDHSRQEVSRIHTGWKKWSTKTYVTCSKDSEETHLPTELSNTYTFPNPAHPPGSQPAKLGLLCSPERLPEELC
Method: To characterise the binding of LPC and SPC to G2A, we performed radioligand binding assays as described previously (Xu, Y, e al, Nature Cell Biology, 2: pp261-267, 2000). [^3H] 16:0 LPC and [^3H] SPC bound to cell homogenates from G2A expressing HEK 293 cells in a time-dependent manner and reached equilibrium after 60 minutes incubation at 4° C. (FIGS. 5A and B). […] LPC and [^3H] SPC. Binding of [^3H] LPC and [^3H] […] The maximum binding capacities for LPC and SPC were approximately 1,503 fmole/10^5 cells and 1,840 fmole/10^5 cells respectively.
Binding assay HEK 293 GFP or HEK 293 G2A.GFP cells were serum starved for 20 hours and subsequently collected in PBS/EDTA. Pelleted cells were stored at −80° C. until use. Frozen cells (10^6 cells/ml) were homogenized in “binding buffer” containing 20 mM Tris-HCl pH 7.5, 100 mM NaCl, 15 mM NaF, 0.2 mM PMSF, 1 mM MgCl2 and 4 mg/ml fatty acid-free BSA in a tight-fit glass Dounce homogeniser. Assays were performed in 96-well plates in triplicate with 100 μl cell homogenate (equivalent to 10^5 cells/well). Varying amounts of [^3H] 16:0 LPC or [^3H] SPC were added to cell homogenates in 50 μl of binding buffer in the presence or absence of cold 16:0 LPC or SPC, or other competitors. Plates were incubated at 4° C. for 2 hours, or for the indicated times. Cell-bound [^3H] LPC or [^3H] SPC was collected onto a filter (Printed Filtermat A, Wallac, Gaithersburg, Md.) using an automated cell harvester (HARVESTER 96, Tomtec, Orange, Conn.). A pause wash programme (five cycle washes) was used. Filters were presoaked in 1% polyethyleneimine (Sigma) to prevent nonspecific binding, dried, sealed in bags (Sample Bag, Wallac) with 4.5 ml Betaplate “Scint” scintillation cocktail (Wallac), and counted in a 1450 Microbeta Trilux Liquid Scintillation and Luminescence Counter (Wallac). Specific binding was calculated by subtraction of nonspecific binding (binding detected in the presence of 100-fold excess unlabelled lipid) from total binding.

G2A [2] = target: T1, G2A; assay: Calcium assay ([Ca2+]i, Fura-2) in G2A.GFP transfected MCF 10A cells; type: cell-based; settings: for desensitisation to subsequent stimulation with LPC or SPC (1 μM): pretreatment 5 minutes with LPC 1 μM or SPC 10 μM (b23 prints SPC 1.0 μM); for transient increase in [Ca2+]i: LPC 0.1 μM, SPC 0.1 μM, LPA 1 μM, PAF 0.1 μM, ATP 20 μM
Method: (§1) MCF 10A cells were cultured in specialised glass-bottom dishes (Bioptech, Inc., Butler, Pa.) and loaded with Fura-2/AM ([…]; Molecular Probes) at 37° C. for 30 minutes in HEPES buffered saline (pH 7.4) containing 125 mM NaCl, 5 mM KCl, 1.2 mM MgSO4, 11 mM glucose, 1.8 mM CaCl2, 25 mM HEPES, 0.2% BSA. Loaded cells were washed, placed in HEPES buffeted saline without BSA, and incubated for 30 minutes at ambient temperature ensure dye hydrolysis by cytosolic esterases. Using a dual-wavelength spectrofluorometer (RFK-6002, Photon Technology Int'l, So. Brunswick, N.J.) coupled to an inverted fluorescence microscope (Olympus, IX-70, Lake Success, N.Y.), GFP-positive cells were identified using an excitation wavelength of 488 nm, a dichroic 505 nm long-pass and an emitter bandpass of 535 nm (Chroma Technology, Brattleboro, Vt.). [Ca^2+], measurements were performed on individual GFP-positive cells at excitation wavelengths of 340 nm and 380 nm, and an emission wavelength of 510 nm. Prior to data acquisition, background fluorescence (areas without cells) was measured and automatically subtracted from subsequent measurements. Agonists were diluted in HEPES buffered saline and solution changes accomplished by rapidly aspirating the buffer and replacing it with HEPES buffered saline containing the specific agonist. Fura-2 fluorescence signals (340 nm, 380 nm and the 340/380 ratio) originating from individual GFP-positive cells were continuously monitored at a sampling frequency of 25 Hz and collected using a software package from Photon Technology International (Felix™). Conversion of the 340 nm/380 nm ratio value into [Ca^2+]i was estimated by comparing the cellular fluorescence ratio with ratios acquired using Fura-2 (free acid) in buffers containing known Ca^2+ concentrations. [Ca^2+]i was then calculated as described by Grynkiewicz, et al (Grynkiewicz, G, et al, J Biol Chem, 260: pp3440-3450, 1985). All assays were performed in assay buffers containing 1 mM EGTA to exclude measurement of calcium influx.
(§2) To address whether G2A is a lysophospholipid receptor, we examined signalling events in cells ectopically expressing G2A as functional correlates of receptor activation. […] [Ca^2+]i measurements were performed in MCF 10A cells transfected with plasmids encoding green fluorescent protein (GFP) tagged G2A (pEXV3 G2A.GFP) (Kabarowski, J H S, et al, PNAS, 97: pp12109-12114, 2000) or GFP as described (Yan Xu and Derek S. Damron, Methods in Molecular Medicine, 39: Ovarian Cancer: Methods and Protocols, pp611-619, 2000). […] Similarly, dose-dependent responses of G2A.GFP transfected cells to SPC were observed, with an EC50 of approximately 0.4 μM (FIG. 4B). […] Responses to these agonists were not affected by G2A.GFP expression (FIG. 4A, middle and lower panels).

MCF 10A cells = assay: Calcium assay ([Ca2+]i, Fura-2) in parental or pEXV3 GFP transfected MCF 10A cells (control); type: cell-based, human; settings: SPC or LPC up to 10 μM, LPA 1 μM, PAF 0.1 μM, ATP 20 μM
Method: as §1, §2

G2A.GFP fusion receptor = target: T2, G2A.GFP fusion receptor (Mus musculus, UniProt Q9Z282); assay: Internalisation of G2A.GFP in HEK 293 G2A.GFP cells (confocal microscopy); type: cell-based; settings: lipid 0.1 μM, 2 hours, serum starved HEK 293 G2A.GFP cells
T2 construct: expressed in transfected cells; host or cells: HEK 293 cells infected with amphotropic MSCV G2A.GFP retrovirus
T2 sequence (Q9Z282 1-382): T1 sequence (Q9Z282 1-382)
Method: Agonist dependent receptor internalisation is a feature of GPCRs. G2A.GFP expressing HEK 293 cells (HEK 293 G2A.GFP) were generated by infection with amphotropic MSCV G2A.GFP retroviruses. In serum starved HEK 293 G2A.GFP cells, G2A.GFP is expressed predominantly on the plasma membrane. LPC (0.1 μM), as well as SPC (1 μM), induced internalisation of G2A.GFP in over 90% of cells (FIG. 6). Neither LPA, S-1-P or PAF induced G2A internalisation, which is consistent with LPC acting as a specific ligand for G2A. Treatment of HEK 293 G2A.GFP cells with SPC at low concentrations (0.1 μM) induced receptor internalisation in fewer cells (<50%).
HEK 293 G2A.GFP cells were seeded onto glass coverslips and subsequently serum starved for 16-24 hours prior to treatment with lipids. Two hours following lipid treatment, coverslips were washed with cold PBS and fixed with PBS/4% paraformaldehyde. Subcellular localisation of G2A.GFP was visualised under a confocal fluorescence microscope with a 60× oil immersion lens.

[3] = G2A.GFP-transfected MCF 10A cells
[4] = G2A.GFP transfected MCF 10A cells
[5] = BN 52021 200 μM pretreatment, G2A.GFP-transfected MCF 10A cells
[6] = PTX 100 ng/ml, 16 hours, G2A.GFP-transfected MCF 10A cells

Molecule: CCCCCCCCCCCCCC(=O)OC[C@@H](O)COP(=O)([O-])OCC[N+](C)(C)C [14:0 LPC]
competition for binding of [3H] 16:0 LPC / [3H] SPC to G2A (G2A [1]): not and not able to compete

competition for binding of [3H] 16:0 LPC / [3H] SPC to G2A (G2A [1]): potent competitors
Molecule: CCCCCCCCCCCCCCCC(=O)OC[C@@H](O)COP(=O)([O-])OCC[N+](C)(C)C [16:0 LPC]
desensitisation to subsequent stimulation with LPC or SPC (1 μM) (G2A [2]; [3]): induces desensitisation

Molecule: CCCCCCCCCCCCCCCCCC(=O)OC[C@@H](O)COP(=O)([O-])OCC[N+](C)(C)C [18:0 LPC]
competition for binding of [3H] 16:0 LPC / [3H] SPC to G2A (G2A [1]): potent competitors

Molecule: Nc1ncnc2c1ncn2[C@@H]1O[C@H](COP(=O)(O)OP(=O)(O)OP(=O)(O)O)[C@@H](O)[C@H]1O [ATP]
transient increase in [Ca2+]i (G2A [2]; [4]): transient elevations
[Ca2+]i response in control cells (MCF 10A cells): transient elevations

effect of pretreatment on [Ca2+]i increase induced by LPC (1 μM), SPC (1 μM), LPA (1 μM) or ATP (20 μM) (G2A [2]; [5]): not
effect of pretreatment on [Ca2+]i increase induced by PAF (G2A [2]; [5]): completely blocked
Molecule: CC1C(=O)OC2C(O)C34C5CC(C(C)(C)C)C36C(OC(=O)C6O)OC4(C(=O)O5)C12O (stereo not drawn) [BN 52021]

Molecule: CCCCCCCCCCCCCCCCOC[C@H](COP(=O)([O-])OCC[N+](C)(C)C)OC(C)=O [PAF]
competition for binding of [3H] 16:0 LPC / [3H] SPC to G2A (G2A [1]): not
transient increase in [Ca2+]i (G2A [2]; [4]): transient elevations
[Ca2+]i response in control cells (MCF 10A cells): transient elevations

Molecule: CCCCCCCCCCCCCC(=O)O[C@@H]1[C@@H](C)[C@@]2(O)[C@@H](C=C(CO)C[C@]3(O)C(=O)C(C)=C[C@@H]23)[C@@H]2C(C)(C)[C@]12OC(C)=O [PMA, Phorbol 12-myristate 13-acetate]
effect of pretreatment on [Ca2+]i increases induced by LPA, LPC and SPC (up to 10 μM) (G2A [2]; PMA 100 nM (b23 prints 0.1 mM), 5 minutes, G2A.GFP-transfected MCF 10A cells): abolished; also recorded: inhibits
effect of pretreatment on [Ca2+]i increases induced by PAF (0.1 μM) and ATP (20 μM) (G2A [2]; PMA 100 nM, 5 minutes, G2A.GFP-transfected MCF 10A cells): did not affect

competition for binding of [3H] 16:0 LPC / [3H] SPC to G2A (G2A [1]): not
Molecule: CCCCCCCCCCCCC/C=C/[C@@H](O)[C@@H](N)COP(=O)(O)O [S-1-P]

Molecule: CCCCCCCCCCCCC/C=C/[C@@H](O)[C@@H](N)COP(=O)([O-])OCC[N+](C)(C)C [SPC, sphingosylphosphorylcholine]
Kd (G2A [1]; Scatchard analysis, saturation binding of [3H] 16:0 LPC or [3H] SPC, HEK 293 G2A.GFP cell homogenate, 4° C., read-out: dissociation constant (Kd)): 229 nM
competition for binding of [3H] 16:0 LPC / [3H] SPC to G2A (G2A [1]): competed for binding
maximum binding capacity (G2A [1]; saturation binding, HEK 293 G2A.GFP cell homogenate): ~1,840 fmole/10^5 cells
EC50 (G2A [2]; G2A.GFP transfected MCF 10A cells, 1 mM EGTA in buffer, read-out: EC50 of dose-dependent increase in [Ca2+]i): ~400 nM
transient increase in [Ca2+]i (G2A [2]; [4]): induced a transient increase in [Ca^2+], albeit to a lesser extent; also recorded: induce transient [Ca^2+], increases
desensitisation to subsequent stimulation with LPC or SPC (1 μM) (G2A [2]; [3]): induced homologous and heterologous desensitisation; also recorded: induces desensitisation
[Ca2+]i response in control cells (MCF 10A cells): Neither parental or pEXV3 GFP transfected cells responded
cells with internalisation of G2A.GFP (G2A.GFP fusion receptor): < 50%

Molecule: CCCCCCCCCCCCCCCCOC[C@@H](O)COP(=O)([O-])OCC[N+](C)(C)C [lyso-PAF]
competition for binding of [3H] 16:0 LPC / [3H] SPC to G2A (G2A [1]): not

Molecule: Pertussis Toxin [PTX]
effect of pretreatment on [Ca2+]i increases induced by LPA (1 μM), LPC (0.1 μM-5 μM) and SPC (1 μM-5 μM) (G2A [2]; [6]): inhibits
effect of pretreatment on [Ca2+]i increases induced by PAF (0.1 μM) or ATP (20 μM) (G2A [2]; [6]): not

competition for binding of [3H] 16:0 LPC / [3H] SPC to G2A (G2A [1]): not
transient increase in [Ca2+]i (G2A [2]; [4]): transient elevations
Molecule: lysophosphatidyc acid [LPA]
[Ca2+]i response in control cells (MCF 10A cells): transient elevations

competition for binding of [3H] 16:0 LPC / [3H] SPC to G2A (G2A [1]): not
Molecule: lysophosphatidylinositol [LPI]

competition for binding of [3H] 16:0 LPC / [3H] SPC to G2A (G2A [1]): not
Molecule: sphingomyelin [SM]
